Results on five molecules are retold here after patent US20250302740A1, “A CONTROLLED RELEASE, ANTIMICROBIAL GEL FOR THE TREATMENT OF VAGINAL INFECTIONS” (priority 2022, published 2025).

In assay [1] the test system is Gardnerella vaginalis biofilm. The following applies: cited from earlier work.
In a further assay the test system is Gardnerella vaginalis. As to the kind of experiment: MIC and MBC against Gardnerella vaginalis. The format is cell-based. Here is the method: (§1) A study was carried out to determine the effectiveness of thymol and carvacrol, singly or in combination, against bacterial vaginosis, trichomoniasis, candidiasis and lactobacilli relative to metronidazole, clotrimazole and clindamycin.
(§2) The results are shown in Table 2, wherein minimum inhibitory concentration (MIC) and minimum bactericidal (or fungicidal) concentration (MBC or MFC) are shown: […]

The subject of a further assay is Lactobacillus. Briefly: MIC and MBC against Lactobacillus. The class given is cell-based. Here is the method:
as §1, §2

The next assay deals with Candida albicans. Briefly: MIC and MFC against Candida albicans. The format is cell-based. The procedure: as §1, §2
Another assay deals with G. vaginalis. Particulars: cited from earlier work.
A further assay relates to C. albicans biofilms. The following applies: cited from earlier work.
Assay [2] has as its system Lactobacillus acidophilus. As to the kind of experiment: Inhibition of Lactobacillus acidophilus across thymol concentration range. The following applies: steady rate across the concentration range. The format is cell-based. An excerpt: Lactobacillus acidophilus, with a steady rate of <10% inhibition of Lactobacillus acidophilus across the concentration range, compared to inhibition range of 10% to 100% across the same concentration range.

The subject of assay [3] is Gardnerella vaginalis biofilm. Particulars: cited from earlier work; for Mature biofilm inhibition: Gardnerella mature biofilm; for Native biofilm inhibition: Gardnerella native biofilm.

Read-outs that look alike come from different tables or passages of the source. Where only a bound is given, the exact number is not on record here.

The MIC is the least concentration at which growth counts as inhibited. Take `Cc1ncc([N+](=O)[O-])n1CCO` [Metronidazole, reference compound]: the “Prevention of biofilm formation” value in assay [1] (Gardnerella vaginalis) is given as “only able to prevent biofilm formation”. In assay [1] (mature biofilm of Gardnerella vaginalis), the “Inhibition or killing of mature biofilm” value is on record as “unable to inhibit or kill”. The MIC with Gardnerella vaginalis (read-out: MIC) is 64 µg/mL; in the assay on Lactobacillus (read-out: MIC) it was at least 1000 µg/mL.

Broadly, the MFC is the lowest tested concentration that kills the fungus rather than only halting it. For `Clc1ccccc1C(c1ccccc1)(c1ccccc1)n1ccnc1` [Clotrimazole, reference compound], the minimum fungicidal concentration (MFC) with Candida albicans (read-out: MFC) was at least 2000 µg/mL. Further, the MIC with Candida albicans (read-out: MIC) came to 1000 µg/mL.

Broadly, the MBC is the smallest concentration meeting the test's criterion for killing. For `CCC[C@@H]1C[C@@H](C(=O)N[C@@H]([C@H]2O[C@H](SC)[C@H](O)[C@@H](O)[C@H]2O)[C@H](C)Cl)N(C)C1` [Clindamycin, reference compound], in the assay on Gardnerella vaginalis (read-out: MBC), the minimum bactericidal concentration (MBC) was found to be 8 µg/mL. Also, the MIC in the assay with Gardnerella vaginalis (read-out: MIC) is 4 µg/mL; in the assay on Lactobacillus (read-out: MIC), 1000 µg/mL.

Take `Cc1ccc(C(C)C)c(O)c1` [Thymol]: the “Adhesion of G. vaginalis to human vaginal cells” value in the assay with G. vaginalis is recorded as “interfere with the adhesion”. Also, in the assay on C. albicans biofilms (C. albicans mature biofilms), the “Destruction of mature biofilms” value is “considerable effect”. Moreover, in the assay with C. albicans biofilms (C. albicans, 0.5xMIC, P<0.05), the “Reduction in biofilms formed” value was “significant reduction”. Further, in assay [2], the “Inhibition of Lactobacillus acidophilus” value is under 10%. In addition, the values for the Mature biofilm inhibition in assay [3] (1/4 MIC) and in assay [3] (1 MIC) were 13.20% and 26.18%, respectively. Also, the Native biofilm inhibition in assay [3] (1/8 MIC) is on record as 11.39%; in assay [3] (1 MIC), 32.77%. Also, the minimal bactericidal concentration (MBC) in the assay on Gardnerella vaginalis (read-out: MBC) turned out to be 250 µg/mL. For the same molecule, the results for the MIC in the assay with Gardnerella vaginalis (read-out: MIC) and in the assay on Candida albicans (read-out: MIC) were 175 µg/mL and 125 µg/mL, respectively. Besides, the minimum fungicidal concentration (MFC) in the assay on Candida albicans (read-out: MFC) amounted to 2500 µg/mL.

On to `Cc1ccc(C(C)C)cc1O` [Carvacrol], for which the minimum bactericidal concentration (MBC) in the assay with Gardnerella vaginalis is 156 µg/mL; in the assay on Lactobacillus, 2440 µg/mL. For the same molecule, the results for the MIC in the assay on Gardnerella vaginalis, in the assay with Lactobacillus and in the assay with Candida albicans were 156 µg/mL, 2440 µg/mL and 625 µg/mL, respectively. Moreover, in the assay on Candida albicans, the MFC came out at 1250 µg/mL.
